# Measurements from patent US20240148707A1, “MODULATION OF DRUG-DRUG INTERACTIONS OF VADADUSTAT” (Akebia Therapeutics, Inc., priority 2021, published 2024).
# How the values were obtained:
# [1] = Phase I drug-drug interaction study with probenecid (Part 1, Arm 2); assay type: in vivo, human; details: for AUC(0-inf) / AUC(0-t) / Cmax: both sexes, human, plasma, fasted
# Description: (§1) A phase I, open-label, 2-part study was conducted in healthy male and female subjects to evaluate the potential for interaction of cyclosporine (Part 1, Arm 1), probenecid (Part 1, Arm 2), and rifampin (Part 2) with vadadustat.
# On the morning of Day 1, subjects received a single oral dose of vadadustat (300 mg) as 2×150 mg tablets after at least a 10-hour overnight fast and remained fasted for at least 4 hours post-dose. Following a 2-day washout (Days 1 to 2), subjects received 1 oral probenecid 500 mg tablet Q12 h for 4 days (Days 3 to 6). On days that probenecid was administered alone (Days 3, 4, and 6), probenecid was administered in a fasted state 1 hour prior to a standard breakfast and 1 hour prior to an evening meal or snack. On Day 5, probenecid was co-administered with a single dose of vadadustat (300 mg as 2×150 mg tablets) following at least a 10-hour fast. Subjects remained fasted for at least 4 hours after dosing.
# On days vadadustat was administered (Day 1 and Day 5), blood samples for PK analysis were collected up to 48 hours postdose. In addition, on vadadustat dosing days, pooled urine samples were collected up to 24 hours post-dose. Subjects were discharged from the CRU on the morning of Day 7, after the final 48-hour post-dose PK sample had been collected. A follow-up phone call was conducted 30 days±2 days after the final dose.
# UGT1A1 = target: T1, UGT1A1 (Homo sapiens, UniProt P22309); test: Enzyme inhibition (in vitro); assay type: in vitro ADME
# T1 sequence (P22309 26-533): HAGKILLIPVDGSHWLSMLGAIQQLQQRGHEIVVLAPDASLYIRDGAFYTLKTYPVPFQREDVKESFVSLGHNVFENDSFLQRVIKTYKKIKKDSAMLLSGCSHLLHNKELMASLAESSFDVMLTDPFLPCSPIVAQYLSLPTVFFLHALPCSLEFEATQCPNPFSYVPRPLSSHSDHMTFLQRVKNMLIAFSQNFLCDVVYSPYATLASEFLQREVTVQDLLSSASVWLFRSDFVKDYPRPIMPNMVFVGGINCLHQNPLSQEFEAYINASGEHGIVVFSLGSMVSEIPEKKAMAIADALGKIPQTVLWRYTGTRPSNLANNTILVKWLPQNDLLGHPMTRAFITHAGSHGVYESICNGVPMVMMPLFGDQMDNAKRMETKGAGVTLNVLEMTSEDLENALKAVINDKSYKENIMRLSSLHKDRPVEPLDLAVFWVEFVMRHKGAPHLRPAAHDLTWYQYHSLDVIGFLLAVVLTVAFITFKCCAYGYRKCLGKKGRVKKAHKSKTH
# [2] = Phase III clinical trial in patients with hemodialysis anemia; assay type: in vivo, human
# Description: The incidence of adverse reactions when this drug was administered up to 24 weeks was 8.3% (2/24 cases).
# [3] = [14C]-labeled Compound 1 metabolism and excretion study in healthy adult males; assay type: in vivo, human
# Excerpt: The urinary excretion rate of this drug and acyl glucuronide is less than 1% of the total radioactivity.
# CYP2C8 = target: T2, CYP2C8 (Homo sapiens, UniProt P10632); test: Enzyme inhibition (in vitro); assay type: in vitro ADME
# T2 sequence (P10632 1-490): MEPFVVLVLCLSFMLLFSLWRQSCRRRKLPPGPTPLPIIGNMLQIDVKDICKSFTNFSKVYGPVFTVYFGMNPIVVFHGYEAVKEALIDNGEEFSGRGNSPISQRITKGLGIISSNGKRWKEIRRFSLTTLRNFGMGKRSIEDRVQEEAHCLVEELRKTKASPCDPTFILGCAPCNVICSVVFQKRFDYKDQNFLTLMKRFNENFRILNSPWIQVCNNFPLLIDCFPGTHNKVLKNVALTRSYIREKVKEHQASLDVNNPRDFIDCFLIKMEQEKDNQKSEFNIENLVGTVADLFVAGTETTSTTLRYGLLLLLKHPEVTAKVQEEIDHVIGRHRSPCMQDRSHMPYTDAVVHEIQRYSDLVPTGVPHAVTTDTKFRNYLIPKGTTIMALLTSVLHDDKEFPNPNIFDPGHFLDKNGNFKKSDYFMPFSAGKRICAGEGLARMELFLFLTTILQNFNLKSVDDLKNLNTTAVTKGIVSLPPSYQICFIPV
# [4] = Phase I drug-drug interaction study with cyclosporine (Part 1, Arm 1); assay type: in vivo, human; details: for AUC(0-inf) / AUC(0-t) / Cmax: both sexes, human, plasma, fasted
# Description: as §1
# Subjects were randomized in a 1:1 ratio to 1 of 2 dosing sequences (A:B or B:A) to receive vadadustat 300 mg alone and vadadustat 300 mg in combination with oral cyclosporine 500 mg in a crossover design. Study drugs were administered in the morning after at least a 10-hour overnight fast. Subjects remained fasted for at least 4 hours post-dose. • Treatment A: a single oral dose of vadadustat (300 mg) administered as 2×150 mg tablets. • Treatment B: a single oral dose of vadadustat (300 mg) administered as 2×150 mg tablets co-administered with a single oral dose of cyclosporine (500 mg) administered as 5×100 mg capsules.
# On the morning of Day 1, subjects received the first treatment (A or B). Following a 7-day washout, subjects crossed over to Period 2 to receive the second treatment of the dosing sequence (A or B) on Day 8.
# On each dosing day (Day 1 and Day 8) blood samples for PK analysis were collected up to 48 hours post-dose. Subjects were discharged from the clinical research unit (CRU) on the morning of Day 10, after the final 48-hour post-dose PK sample had been collected. A follow-up phone call was conducted 30 days±2 days after the final dose.
# normal rat = test: Blood erythropoietin concentration increasing action; assay type: in vivo; details: single oral administration
# [5] = vadadustat 300 mg alone, single oral dose, read-out: AUCinf, geometric LSM, Treatment V
# [6] = vadadustat 300 mg alone, single oral dose, read-out: AUClast, geometric LSM, Treatment V
# [7] = vadadustat 300 mg alone, single oral dose, read-out: Cmax, geometric LSM, Treatment V
smiles,measurement,setting,value
"O=C(O)CNC(=O)c1ncc(-c2cccc(Cl)c2)cc1O [Compound 1, {[5-(3-chlorophenyl)-3-hydroxypyridine-2-carbonyl]amino}acetic acid]",AUC(0-inf),"[1]; oral, vadadustat 300 mg single dose + probenecid 500 mg Q12h (multiple doses), read-out: AUCinf, geometric LSM, Treatment V + P",427 µg·h/mL
same,AUC(0-t),"[1]; oral, vadadustat 300 mg single dose + probenecid 500 mg Q12h (multiple doses), read-out: AUClast, geometric LSM, Treatment V + P",417 µg·h/mL
same,Cmax,"[1]; oral, vadadustat 300 mg single dose + probenecid 500 mg Q12h (multiple doses), read-out: Cmax, geometric LSM, Treatment V + P",48800 ng/mL
same,AUC(0-inf),[1]; [5],234 µg·h/mL
same,AUC(0-t),[1]; [6],233 µg·h/mL
same,Cmax,[1]; [7],47500 ng/mL
same,tolerability,"[1]; during treatment with probenecid, healthy subjects",tolerated
same,change of Cmax values,[1]; in combination with probenecid,relatively unchanged
same,urinary excretion,[1]; in combination with probenecid,decreased
same,inhibitory effect on UGT1A1,UGT1A1,inhibitory effect
same,incidence of adverse reactions,[2]; administered up to 24 weeks (2/24 cases),8.3%
same,hemoglobin level before administration,"[2]; baseline, 23 people, mean ± standard deviation",9.30 ± 0.67
same,share of the total radioactivity (AUC0-∞) in plasma,"[3]; healthy adult male (6), single oral 650 mg [14C]-labeled Compound 1",75%
same,total radioactivity administered recovered in urine,"[3]; single dose 650 mg [14C]-labeled, by 72 hours after administration",58.9%
same,inhibitory effect on CYP2C8,CYP2C8,inhibitory effect
same,AUC(0-inf),"[4]; vadadustat 300 mg + cyclosporine 500 mg, single oral doses, read-out: AUCinf, geometric LSM, Treatment V + C",293 µg·h/mL
same,AUC(0-t),"[4]; vadadustat 300 mg + cyclosporine 500 mg, single oral doses, read-out: AUClast, geometric LSM, Treatment V + C",292 µg·h/mL
same,Cmax,"[4]; vadadustat 300 mg + cyclosporine 500 mg, single oral doses, read-out: Cmax, geometric LSM, Treatment V + C",37100 ng/mL
same,AUC(0-inf),[4]; [5],251 µg·h/mL
same,AUC(0-t),[4]; [6],249 µg·h/mL
same,Cmax,[4]; [7],45400 ng/mL
same,tolerability,"[4]; during treatment with cyclosporine, healthy subjects",tolerated
same,changes in the Cmax and AUC values,[4]; vadadustat in combination with cyclosporine,no clinically relevant changes
same,blood erythropoietin levels,normal rat,elevated blood erythropoietin levels
